Source: patent US20260034065A1, “EXTENDED RELEASE PHARMACEUTICAL FORMULATION” (Douglas Pharmaceuticals Ltd., priority 2020, published 2026)

What was measured:
[1] = injected by any route of administration, e.g. Loo 2016; cited from earlier work
[2] = subcutaneous dosing, unpublished data
[3] = Study ZPS-603 Cohort 4: mood ratings (HAMA, FQ, MADRS) in patients with TRD/TRA; format: in vivo, human; conditions: study 603 cohort 4 participants (FIG. 7)
Description: The objective of Cohort 4 was to evaluate efficacy, safety, PK and PD of an extended release ketamine oral formulation in patients with treatment-resistant depression and/or treatment-resistant anxiety (TRD/TRA). […] The design was an open label multiple ascending dose study. The initial dose was 60 mg, and could be escalated by an additional 60 mg 12 hourly, based on assessment of mood symptoms, to a maximum dose of 240 mg, with a total of 7 doses given 12 hourly between 0 and 72 hours. Endpoints included safety, tolerability, ketamine and norketamine PK, and PD (mood ratings including the Fear Questionnaire (FQ; Marks 1979), HAMA and MADRS, and dissociative symptom rating scale scores).
Anxiety Rating Scales: HAMA and FQ: Individual and group mean HAMA and FQ scores by timepoint are shown in FIG. 6 (6A: HAMA; 6B: FQ) There was a consistent trend for both scores to decrease over time, most noticeably in patients with higher baseline scores. […] All seven participants were assessed to be treatment responders (>50% reduction) based on changes in
There was a consistent trend for scores to decrease over time, most noticeably in patients with higher baseline scores. All seven participants were assessed to be treatment responders (>50% reduction) based on change in MADRS scores. […]

CNC1(c2ccccc2Cl)CCCCC1=O (stereo not drawn) [Ketamine solution, 2-(2-chlorophenyl)-2-(methylamino) cyclohexan-1-one]
duration of marked dissociative symptoms after dosing [1]: up to 60 minutes
Mean Tmax-ketamine [2]: 38.4 min
onset of improvement of anxiety symptoms [3]: 1 to 2 h
